# Measured values reported in patent US9682995B2, “Amino-substituted isothiazoles” (BAYER PHARMA AKTIENGESELLSCHAFT, priority 2013, dated 2017).
# pIC50: −log10 of the molar value.
# Experiments:
# HeLa-MaTu-ADR = assay: Proliferation assay (crystal violet), HeLa-MaTu-ADR; format: cell-based; conditions: 96 h, 4 days, read-out: Inhibition of proliferation IC50 HeLa-MaTu-ADR
# Procedure: (§1) Cultivated tumor cells (cells were ordered from ATCC, except HeLa-MaTu and HeLa-MaTu-ADR, which were ordered from EPO-GmbH, Berlin) were plated at a density of 1000 to 5000 cells/well, depending on the growth rate of the respective cell line, in a 96-well multititer plate in 200 μL of their respective growth medium supplemented 10% fetal calf serum. After 24 hours, the cells of one plate (zero-point plate) were stained with crystal violet (see below), while the medium of the other plates was replaced by fresh culture medium (200 μl), to which the test substances were added in various concentrations (0 μM, as well as in the range of 0.001-10 μM; the final concentration of the solvent dimethyl sulfoxide was 0.5%). The cells were incubated for 4 days in the presence of test substances. Cell proliferation was determined by staining the cells with crystal violet: the cells were fixed by adding 20 μl/measuring point of an 11% glutaric aldehyde solution for 15 minutes at room temperature. After three washing cycles of the fixed cells with water, the plates were dried at room temperature. The cells were stained by adding 100 μl/measuring point of a 0.1% crystal violet solution (pH 3.0). After three washing cycles of the stained cells with water, the plates were dried at room temperature. The dye was dissolved by adding 100 μl/measuring point of a 10% acetic acid solution. Absorption was determined by photometry at a wavelength of 595 nm. The change of cell number, in percent, was calculated by normalization of the measured values to the absorption values of the zero-point plate (=0%) and the absorption of the untreated (0 μm) cells (=100%). The IC50 values were determined by means of a 4 parameter fit.
# NCI-H460 = assay: Proliferation assay (crystal violet), NCI-H460; format: cell-based; conditions: Homo sapiens, 96 h; NCI-H460, 4 days; read-out: Inhibition of proliferation IC50 NCI-H460
# Procedure: as §1
# DU145 = assay: Proliferation assay (crystal violet), DU145; format: cell-based; conditions: Homo sapiens, DU-145, 96 h; DU145, 4 days; read-out: Inhibition of proliferation IC50 DU145
# Procedure: as §1
# Caco2 = assay: Proliferation assay (crystal violet), Caco2; format: cell-based; conditions: Homo sapiens, Caco-2, 96 h; Caco2, 4 days; read-out: Inhibition of proliferation IC50 Caco2
# Procedure: as §1
# B16F10 = assay: Proliferation assay (crystal violet), B16F10; format: cell-based; conditions: Mus musculus, B16-F10, 96 h; B16F10, 4 days; read-out: Inhibition of proliferation IC50 B16F10
# Procedure: as §1
# [1] = biological target: 456 kinases (of these 395 non-mutant kinases) (Homo sapiens, UniProt O75385); assay: Kinase Profiling (KINOMEscan); format: binding; conditions: ULK1; 10 μM
# [2] = biological target: 456 kinases (of these 395 non-mutant kinases) (Homo sapiens, UniProt P07332); assay: Kinase Profiling (KINOMEscan); format: binding; conditions: FES; 10 μM
# [3] = biological target: 456 kinases (of these 395 non-mutant kinases) (Homo sapiens, UniProt P10721, A829P); assay: Kinase Profiling (KINOMEscan); format: binding; conditions: KIT(A829P); 10 μM
# Chain of 456 kinases (of these 395 non-mutant kinases) (Homo sapiens, UniProt P10721, A829P) (P10721 26-976 A829P limits assumed): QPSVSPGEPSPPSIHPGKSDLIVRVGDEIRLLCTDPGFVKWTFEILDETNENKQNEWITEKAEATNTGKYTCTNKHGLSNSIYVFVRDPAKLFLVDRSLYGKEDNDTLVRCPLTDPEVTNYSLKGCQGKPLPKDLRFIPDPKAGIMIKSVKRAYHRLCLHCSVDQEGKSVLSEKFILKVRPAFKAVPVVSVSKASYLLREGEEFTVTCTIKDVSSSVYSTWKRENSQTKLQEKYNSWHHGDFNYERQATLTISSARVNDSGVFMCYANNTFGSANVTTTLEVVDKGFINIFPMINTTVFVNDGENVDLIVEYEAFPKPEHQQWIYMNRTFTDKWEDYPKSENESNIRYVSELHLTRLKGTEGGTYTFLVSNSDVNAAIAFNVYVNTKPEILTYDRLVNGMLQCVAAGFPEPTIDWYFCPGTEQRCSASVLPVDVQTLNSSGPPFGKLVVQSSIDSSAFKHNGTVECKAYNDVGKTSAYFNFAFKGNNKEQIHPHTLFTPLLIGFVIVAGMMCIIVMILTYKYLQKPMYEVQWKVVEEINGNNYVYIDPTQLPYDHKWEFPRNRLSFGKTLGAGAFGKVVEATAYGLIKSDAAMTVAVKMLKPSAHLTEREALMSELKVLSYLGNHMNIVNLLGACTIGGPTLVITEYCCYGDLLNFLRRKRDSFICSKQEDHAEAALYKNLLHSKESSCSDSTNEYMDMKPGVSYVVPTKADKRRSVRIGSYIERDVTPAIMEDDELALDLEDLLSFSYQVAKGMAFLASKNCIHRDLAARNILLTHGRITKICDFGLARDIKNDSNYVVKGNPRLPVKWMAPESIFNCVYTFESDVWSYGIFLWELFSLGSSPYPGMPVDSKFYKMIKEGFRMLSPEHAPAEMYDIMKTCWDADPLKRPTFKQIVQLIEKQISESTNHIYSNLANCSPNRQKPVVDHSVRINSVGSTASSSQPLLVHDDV
# [4] = biological target: 456 kinases (of these 395 non-mutant kinases) (Homo sapiens, UniProt P21127); assay: Kinase Profiling (KINOMEscan); format: binding; conditions: CDC2L1; 10 μM
# [5] = biological target: 456 kinases (of these 395 non-mutant kinases) (Homo sapiens, UniProt P29597); assay: Kinase Profiling (KINOMEscan); format: binding; conditions: 10 μM
# [6] = biological target: 456 kinases (of these 395 non-mutant kinases) (Homo sapiens, UniProt P32298); assay: Kinase Profiling (KINOMEscan); format: binding; conditions: GRK4; 10 μM
# [7] = biological target: 456 kinases (of these 395 non-mutant kinases) (Homo sapiens, UniProt P36888, R834Q); assay: Kinase Profiling (KINOMEscan); format: binding; conditions: FLT3(R834Q); 10 μM
# [8] = biological target: 456 kinases (of these 395 non-mutant kinases) (Homo sapiens, UniProt P42336, E545K); assay: Kinase Profiling (KINOMEscan); format: binding; conditions: PIK3CA(E545K); 10 μM
# [9] = biological target: 456 kinases (of these 395 non-mutant kinases) (Homo sapiens, UniProt P45984); assay: Kinase Profiling (KINOMEscan); format: binding; conditions: JNK2; 10 μM
# [10] = biological target: 456 kinases (of these 395 non-mutant kinases) (Homo sapiens, UniProt P48730); assay: Kinase Profiling (KINOMEscan); format: binding; conditions: CSNK1D; 10 μM
# [11] = biological target: 456 kinases (of these 395 non-mutant kinases) (Homo sapiens, UniProt Q02156); assay: Kinase Profiling (KINOMEscan); format: binding; conditions: PRKCE; 10 μM
# [12] = biological target: 456 kinases (of these 395 non-mutant kinases) (Homo sapiens, UniProt Q13164); assay: Kinase Profiling (KINOMEscan); format: binding; conditions: ERK5; 10 μM
# Chain of 456 kinases (of these 395 non-mutant kinases) (Homo sapiens, UniProt Q13164) (Q13164 2-816 limits assumed, change not shown): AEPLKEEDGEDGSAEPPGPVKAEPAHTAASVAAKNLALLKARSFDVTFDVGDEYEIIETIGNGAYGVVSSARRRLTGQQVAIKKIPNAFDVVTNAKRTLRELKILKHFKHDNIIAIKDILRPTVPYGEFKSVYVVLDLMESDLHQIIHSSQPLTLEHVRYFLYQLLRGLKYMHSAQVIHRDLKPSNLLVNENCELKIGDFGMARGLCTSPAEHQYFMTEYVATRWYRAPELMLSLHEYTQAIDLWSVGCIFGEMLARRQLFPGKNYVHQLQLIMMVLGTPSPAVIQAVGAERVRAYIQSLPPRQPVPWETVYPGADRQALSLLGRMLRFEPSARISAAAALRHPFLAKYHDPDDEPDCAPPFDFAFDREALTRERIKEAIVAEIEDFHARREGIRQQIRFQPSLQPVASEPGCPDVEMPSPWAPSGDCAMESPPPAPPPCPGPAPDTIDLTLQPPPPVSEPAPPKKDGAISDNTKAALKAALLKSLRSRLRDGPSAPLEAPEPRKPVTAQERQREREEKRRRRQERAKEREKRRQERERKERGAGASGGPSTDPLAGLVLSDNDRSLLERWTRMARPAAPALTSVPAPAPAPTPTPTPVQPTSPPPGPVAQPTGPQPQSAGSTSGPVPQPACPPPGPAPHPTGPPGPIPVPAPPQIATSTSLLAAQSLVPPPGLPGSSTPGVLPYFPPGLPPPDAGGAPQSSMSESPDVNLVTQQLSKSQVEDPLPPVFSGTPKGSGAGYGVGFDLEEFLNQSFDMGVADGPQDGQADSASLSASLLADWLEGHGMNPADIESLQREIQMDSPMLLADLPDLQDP
# [13] = biological target: 456 kinases (of these 395 non-mutant kinases) (Homo sapiens, UniProt Q8IU85); assay: Kinase Profiling (KINOMEscan); format: binding; conditions: CAMK1D; 10 μM
# [14] = biological target: 456 kinases (of these 395 non-mutant kinases) (Homo sapiens, UniProt Q8IVW4); assay: Kinase Profiling (KINOMEscan); format: binding; conditions: CDKL3; 10 μM
# [15] = biological target: 456 kinases (of these 395 non-mutant kinases) (Homo sapiens, UniProt Q9BWU1); assay: Kinase Profiling (KINOMEscan); format: binding; conditions: CDK11; 10 μM
# [16] = biological target: 456 kinases (of these 395 non-mutant kinases) (Homo sapiens, UniProt Q9H1R3); assay: Kinase Profiling (KINOMEscan); format: binding; conditions: MYLK2; 10 μM
# Chain of 456 kinases (of these 395 non-mutant kinases) (Homo sapiens, UniProt Q9H1R3) (Q9H1R3 2-596 limits assumed, change not shown): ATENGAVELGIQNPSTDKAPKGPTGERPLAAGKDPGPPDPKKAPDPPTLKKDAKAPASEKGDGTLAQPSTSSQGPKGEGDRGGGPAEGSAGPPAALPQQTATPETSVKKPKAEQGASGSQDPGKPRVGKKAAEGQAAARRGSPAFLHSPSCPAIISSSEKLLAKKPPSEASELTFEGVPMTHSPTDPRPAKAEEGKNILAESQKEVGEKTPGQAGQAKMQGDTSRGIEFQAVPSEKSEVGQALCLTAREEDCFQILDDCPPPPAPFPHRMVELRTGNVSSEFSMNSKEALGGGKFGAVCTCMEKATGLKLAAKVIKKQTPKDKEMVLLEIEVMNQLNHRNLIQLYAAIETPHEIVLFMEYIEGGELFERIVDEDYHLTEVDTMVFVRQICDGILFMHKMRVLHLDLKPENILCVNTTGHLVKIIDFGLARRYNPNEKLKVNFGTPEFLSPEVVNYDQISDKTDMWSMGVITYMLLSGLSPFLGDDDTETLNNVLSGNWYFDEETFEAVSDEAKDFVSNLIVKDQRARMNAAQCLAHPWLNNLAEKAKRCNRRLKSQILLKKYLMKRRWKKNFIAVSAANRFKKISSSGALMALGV
# [17] = biological target: 456 kinases (of these 395 non-mutant kinases) (Homo sapiens, UniProt Q9NQU5); assay: Kinase Profiling (KINOMEscan); format: binding; conditions: PAK6; 10 μM
# [18] = biological target: 456 kinases (of these 395 non-mutant kinases) (Homo sapiens, UniProt Q9UPZ9); assay: Kinase Profiling (KINOMEscan); format: binding; conditions: ICK; 10 μM
# [19] = biological target: 456 kinases (of these 395 non-mutant kinases) (Homo sapiens, UniProt Q9UQB9); assay: Kinase Profiling (KINOMEscan); format: binding; conditions: AURKC; 10 μM
# [20] = biological target: 456 kinases (of these 395 non-mutant kinases) (Homo sapiens, UniProt Q9Y6R4); assay: Kinase Profiling (KINOMEscan); format: binding; conditions: MAP3K4; 10 μM
smiles,measurement,setting,value
"CCc1ccccc1NC(=O)c1c(C)nsc1Nc1cnc2cc(F)ccc2n1 [Example 20, N-(2-Ethylphenyl)-5-[(6-fluoroquinoxalin-2-yl)amino]-3-methyl-1,2-thiazole-4-carboxamide]",pIC50,HeLa-MaTu-ADR,6.30
same,pIC50,NCI-H460,6.36
same,pIC50,DU145,6.22
same,pIC50,Caco2,6.26
same,pIC50,B16F10,6.28
same,% Ctrl @ 10 μM,[1],100 % Ctrl
same,% Ctrl @ 10 μM,[2],94 % Ctrl
same,% Ctrl @ 10 μM,[3],94 % Ctrl
same,% Ctrl @ 10 μM,[4],92 % Ctrl
same,% Ctrl @ 10 μM,[5]; TYK2(JH1domain-catalytic),100 % Ctrl
same,% Ctrl @ 10 μM,[5]; TYK2(JH2domain-pseudokinase),100 % Ctrl
same,% Ctrl @ 10 μM,[6],77 % Ctrl
same,% Ctrl @ 10 μM,[7],93 % Ctrl
same,% Ctrl @ 10 μM,[8],84 % Ctrl
same,% Ctrl @ 10 μM,[9],100 % Ctrl
same,% Ctrl @ 10 μM,[10],86 % Ctrl
same,% Ctrl @ 10 μM,[11],75 % Ctrl
same,% Ctrl @ 10 μM,[12],100 % Ctrl
same,% Ctrl @ 10 μM,[13],87 % Ctrl
same,% Ctrl @ 10 μM,[14],66 % Ctrl
same,% Ctrl @ 10 μM,[15],100 % Ctrl
same,% Ctrl @ 10 μM,[16],100 % Ctrl
same,% Ctrl @ 10 μM,[17],100 % Ctrl
same,% Ctrl @ 10 μM,[18],100 % Ctrl
same,% Ctrl @ 10 μM,[19],73 % Ctrl
same,% Ctrl @ 10 μM,[20],84 % Ctrl
"Cc1nsc(Nc2cc(C#N)ccn2)c1C(=O)Nc1ccc(Cl)c(F)c1 [Example 54, N-(4-Chloro-3-fluorophenyl)-5-[(4-cyanopyridin-2-yl)amino]-3-methyl-1,2-thiazole-4-carboxamide]",pIC50,HeLa-MaTu-ADR,6.19
same,pIC50,NCI-H460,6.68
same,pIC50,DU145,5.92
same,pIC50,Caco2,5.89
same,pIC50,B16F10,6.07
"Cc1nsc(Nc2ccc(C#N)cn2)c1C(=O)Nc1ccc(Cl)c(F)c1 [Example 52, N-(4-Chloro-3-fluorophenyl)-5-[(5-cyanopyridin-2-yl)amino]-3-methyl-1,2-thiazole-4-carboxamide]",pIC50,HeLa-MaTu-ADR,6.89
same,pIC50,NCI-H460,6.89
same,pIC50,DU145,6.51
same,pIC50,Caco2,6.72
same,pIC50,B16F10,6.64
"Cc1nsc(Nc2nc3c(C(F)(F)F)cccc3s2)c1C(=O)Nc1ccc(Cl)c(F)c1 [Example 53, N-(4-Chloro-3-fluorophenyl)-3-methyl-5-{[4-(trifluoromethyl)-1,3-benzothiazol-2-yl]amino}-1,2-thiazole-4-carboxamide]",pIC50,HeLa-MaTu-ADR,6.51
same,pIC50,NCI-H460,6.28
same,pIC50,DU145,6.01
same,pIC50,Caco2,6.70
same,pIC50,B16F10,6.66
